pEC50, pIC50: −log10 of the molar value.
Columns and labels:
[1] = Inhibition of HCV BB7 NS5B polymerase after 15 mins; parameters: species or system Hepacivirus hominis
Hepatitis C virus [2] = assay: Antiviral activity against HCV genotype 1b infected in human Huh7 cells assessed as decrease in viral NS5A levels after 3 days by ELISA; type: functional, organism-based, Hepacivirus hominis; conditions: Huh-7, 72 h
[3] = Inhibition of HCV BK NS5B polymerase after 15 mins; parameters: species or system Hepatitis C virus (isolate BK)
Hepatitis C virus [4] = assay: Antiviral activity against HCV genotype 1b infected in human Huh7 cells assessed as reduction of viral RNA level after 3 days by RT-PCR method; type: functional, organism-based, Hepacivirus hominis; conditions: Huh-7, 72 h

SMILES	pIC50 [1]	pEC50 (Hepatitis C virus [2])	pIC50 [3]	pEC50 (Hepatitis C virus [4])
CCCC1(CC(=O)O)OCCc2c1[nH]c1c(C)c(C(=O)NCCc3ncc[nH]3)cc(C#N)c21 (racemic)	6.25	< 4.00	6.07	
CCCC1(CC(=O)O)OCCc2c1[nH]c1c(C)c(C(=O)N(C)C)cc(C#N)c21 (racemic)	4.70	< 4.00	4.80	
CCCC1(CC(=O)O)OCCc2c1[nH]c1c(C)c(OCCc3ccncc3)cc(C#N)c21 (racemic)	6.64	5.08	6.51	
CCCC1(CC(=O)O)OCCc2c1[nH]c1c(C)c(OC(C)C)cc(C#N)c21 (racemic)	6.66	4.71	6.32	
CCCC1(CC(=O)O)OCCc2c1[nH]c1c(C)c(C(=O)NCc3ccc4c(c3)OCO4)cc(C#N)c21 (racemic)	6.52	4.25	6.27	
CCCC1(CC(=O)O)OCCc2c1[nH]c1c(C)c(OC)cc(C#N)c21 (racemic)	6.89	4.70	6.44	
CCCC1(CC(=O)O)OCCc2c1[nH]c1c(C)c(OCc3cnccn3)cc(C#N)c21 (racemic)	7.70	5.80	7.72	
CCCC1(CC(=O)O)OCCc2c1[nH]c1c(C)c(OCCN3CCCC3)cc(C#N)c21 (racemic)	6.02	4.59	5.96	
CCC[C@]1(CC(=O)O)OCCc2c1[nH]c1c(C)ccc(C#N)c21	6.40		6.52	
CCCC1(CC(=O)O)OCCc2c1[nH]c1c(C)c(C(=O)NC)cc(C#N)c21 (racemic)	6.01	< 4.00	5.89	
CCCC1(CC(=O)O)OCCc2c1[nH]c1c(C)c(C(=O)NCCc3ccccn3)cc(C#N)c21 (racemic)	6.19	< 4.00	5.92	
CCCC1(CC(=O)O)OCCc2c1[nH]c1c(C)c(OCC)cc(C#N)c21 (racemic)	7.15	5.46	6.96	
CCCNC(=O)c1cc(C#N)c2c3c([nH]c2c1C)C(CCC)(CC(=O)O)OCC3 (racemic)	5.70	< 4.00	5.52	
CCCOc1cc(C#N)c2c3c([nH]c2c1C)C(CCC)(CC(=O)O)OCC3 (racemic)	7.15	5.54	7.15	
CCCC1(CC(=O)O)OCCc2c1[nH]c1c(C)c(O)cc(C#N)c21 (racemic)	6.70	4.33	6.59	
CCCC1(CC(=O)O)OCCc2c1[nH]c1c(C)c(C(=O)NCc3ccccc3)cc(C#N)c21 (racemic)	6.17	< 4.00	6.01	
CCCC1(CC(=O)O)OCCc2c1[nH]c1c(C)c(OCCOC)cc(C#N)c21 (racemic)	7.05	5.31	7.40	

The next lines start with the values.

pIC50 [1]	pEC50 (Hepatitis C virus [2])	pIC50 [3]	pEC50 (Hepatitis C virus [4])	SMILES
8.52	6.92	8.52		CCC[C@]1(CC(=O)O)OCCc2c1[nH]c1c(C)c(OC[C@H](C)n3cccn3)cc(C#N)c21
8.15	6.47	8.15		CCC[C@]1(CC(=O)O)OCCc2c1[nH]c1c(C)c(OC[C@@H](C)n3cccn3)cc(C#N)c21
7.70	6.41	7.70		CCCC1(CC(=O)O)OCCc2c1[nH]c1c(C)c(OCc3ccccn3)cc(C#N)c21 (racemic)
7.70	6.12	7.52		CCC[C@]1(CC(=O)O)OCCc2c1[nH]c1c(C)c(OCc3cc(C)n(C)n3)cc(C#N)c21
8.52		7.92	7.70	CC[C@H](C)[C@]1(CC(=O)O)OCCc2c1[nH]c1c(C)c(OCCn3cccn3)cc(C#N)c21
8.70		8.70	7.70	CC[C@H](C)[C@]1(CC(=O)O)OCCc2c1[nH]c1c(C)c(OC[C@H](C)n3cccn3)cc(C#N)c21
8.10	6.32	8.22		CCC[C@]1(CC(=O)O)OCCc2c1[nH]c1c(C)c(OCc3cc(C)on3)cc(C#N)c21
8.30		8.30		CCC[C@]1(CC(=O)O)OCCc2c1[nH]c1c(C)c(OCCn3cccn3)cc(C#N)c21

Reference: ChEMBL document CHEMBL1777733, “The discovery and structure-activity relationships of pyrano[3,4-b]indole-based inhibitors of hepatitis C virus NS5B polymerase” (Bioorg Med Chem Lett, 2011)
